Test results published in US20230061417A1, “THIENOPYRIMIDINE DERIVATIVES AS LPA RECEPTOR 2 INHIBITORS” (CHIESI FARMACEUTICI S.P.A., priority 2019, published 2023).

Target: T1, human recombinant LPA2 (Homo sapiens, UniProt Q9HBW0)
T1 construct: expressed in transfected cells; host or cells: CHO (CHO-hLPA2 cell line)
Assay: FLIPR calcium mobilization assay, LPA2 antagonism in CHO-hLPA2 cells
Type: cell-based
Conditions: human recombinant LPA2 in CHO cells, LPA EC80 stimulation, 30 min pre-incubation; read-out: LPA2 IC50
Experimental: The effectiveness of compounds of the present invention as LPA2 antagonist can be determined at the human recombinant LPA2 expressed in CHO cells, using a FLIPR assay in 384 well format.
CHO-hLPA2 cell lines are cultured in a humidified incubator at 5% CO2 in DMEM/F-12 (1:1) MIXTURE with 2 mM Glutamax, supplemented with 10% of Foetal Bovine Serum, 1 mM Sodium Pyruvate, 11 mM Hepes and 1× Penicillin/Streptomycin. CHO hLPA2 cells are seeded into black walled clear-bottom 384-well plates (#781091, Greiner Bio-One GmbH) at a density of 7,500 cells per well in 50 μl culture media and grown overnight in a 37° C. humidified CO2-incubator. Serial dilutions (1:3 or 1:4, 11 points CRC) of compounds are performed in 100% DMSO at 200× the final concentration. The compounds are diluted 1:50 prior to the experiment with Assay Buffer (20 mM HEPES, 145 mM NaCl, 5 mM KCl, 5.5 mM glucose, 1 mM MgCl2 and 2 mM CaCl2, pH 7.4 containing 0.01% Pluronic F-127) to obtain a solution corresponding to […] the final concentration in the assay (4×, 2% DMSO). The final concentration of DMSO in the assay will be 0.5% in each well. Medium is removed by aspiration and cells are then incubated with 30 μl of a loading solution containing 5 μM of the cytoplasmic Ca2+ indicator Cal-520 AM in Assay Buffer containing 2.5 mM probenecid for 30 min at 37° C. incubator (cell loading). The loaded cell plates are transferred into the FLIPR instrument and calcium responses are monitored during the on-line addition protocols. For testing of compounds, after the cell loading, 10 μl/well of 4× antagonists' solution was added onto the cells. After 30 min pre-incubation (at 37° C.), 10 μl/well of 5× concentrated LPA EC80 was added and Ca2+ mobilization responses was followed during the on-line addition protocol. Intracellular peak fluorescence values subtracted by baseline fluorescence are exported and analysed to determine IC50 values, respectively. The calcium response is expressed as percentage of the maximal inhibition of the EC80 agonist response.
The raw data (peak height expressed as relative fluorescence units) are normalized and transformed into “percent of inhibition”. Curve fitting and pIC50 (−Log IC50) estimations are carried out using a four-parameter logistic model using XLfit Software.

T1 sequence (Q9HBW0 whole entry): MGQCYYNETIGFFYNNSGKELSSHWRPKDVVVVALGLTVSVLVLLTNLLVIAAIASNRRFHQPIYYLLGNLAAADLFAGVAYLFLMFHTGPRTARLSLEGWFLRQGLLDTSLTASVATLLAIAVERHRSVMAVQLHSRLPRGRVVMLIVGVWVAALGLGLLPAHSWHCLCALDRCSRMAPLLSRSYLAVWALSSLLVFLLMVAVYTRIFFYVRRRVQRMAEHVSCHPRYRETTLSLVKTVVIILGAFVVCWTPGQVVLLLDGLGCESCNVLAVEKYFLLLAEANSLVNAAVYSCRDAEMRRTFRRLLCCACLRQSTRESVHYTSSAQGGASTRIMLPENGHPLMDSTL

Row | SMILES | IC50
1 | CC(=O)Nc1cc(F)c(S(=O)(=O)N2CCN(C[C@H](C)Nc3ncnc4c(C)csc34)CC2)cc1C [Example 6, N-[5-fluoro-2-methyl-4-({4-[(2S)-2-({7-methylthieno[3,2-d]pyrimidin-4-yl}amino)propyl]piperazin-1-yl}sulfonyl)phenyl]acetamide] | < 1 µM
2 | Cc1csc2c(N[C@@H](C)CN3CCN(S(=O)(=O)c4ccc(NC(=O)c5ccncc5)cc4)CC3)ncnc12 [Example 16, N-[4-({4-[(2S)-2-({7-methylthieno[3,2-d]pyrimidin-4-yl}amino)propyl]piperazin-1-yl}sulfonyl)phenyl]pyridine-4-carboxamide] | < 1 µM
3 | COC(=O)Nc1nc(C)c(S(=O)(=O)N2CCN(C[C@H](C)Nc3nc(C4CC4)nc4c(C(F)(F)F)csc34)CC2)s1 [Example 34, methyl N-[5-({4-[(2S)-2-{[2-cyclopropyl-7-(trifluoromethyl)thieno[3,2-d]pyrimidin-4-yl]amino}propyl]piperazin-1-yl}sulfonyl)-4-methyl-1,3-thiazol-2-yl]carbamate] | < 0.01 µM
4 | CC(=O)N1CCc2cc(S(=O)(=O)N3CCN(C[C@H](C)Nc4ncnc5c(C)csc45)CC3)ccc21 [Example 24, 1-[5-({4-[(2S)-2-({7-methylthieno[3,2-d]pyrimidin-4-yl}amino)propyl]piperazin-1-yl}sulfonyl)-2,3-dihydro-1H-indol-1-yl]ethan-1-one] | < 1 µM
5 | Cc1csc2c(N[C@@H](C)CN3CCN(S(=O)(=O)c4cnn(-c5ccc(C(F)(F)F)cn5)c4)CC3)ncnc12 [Example 25, 7-methyl-N-[(2S)-1-[4-({1-[5-(trifluoromethyl)pyridin-2-yl]-1H-pyrazol-4-yl}sulfonyl)piperazin-1-yl]propan-2-yl]thieno[3,2-d]pyrimidin-4-amine] | < 1 µM
6 | CC(=O)Nc1ncc(S(=O)(=O)N2CCN(C[C@H](C)Nc3nc(C4CC4)nc4c(C)csc34)CC2)s1 [Example 22, N-[5-({4-[(2S)-2-({2-cyclopropyl-7-methylthieno[3,2-d]pyrimidin-4-yl}amino)propyl]piperazin-1-yl}sulfonyl)-1,3-thiazol-2-yl]acetamide] | < 1 µM
7 | Cc1csc2c(N[C@@H](C)CN3CCN(S(=O)(=O)c4ccc(-c5cc(C(F)(F)F)n(C)n5)s4)CC3)ncnc12 [Example 29, 7-methyl-N-[(2S)-1-[4-({5-[1-methyl-5-(trifluoromethyl)-1H-pyrazol-3-yl]thiophen-2-yl}sulfonyl)piperazin-1-yl]propan-2-yl]thieno[3,2-d]pyrimidin-4-amine] | < 1 µM
8 | Cc1csc2c(N[C@@H](C)CN3CCN(S(=O)(=O)c4ccc(-c5ccno5)s4)CC3)ncnc12 [Example 21, 7-methyl-N-[(2S)-1-(4-{[5-(1,2-oxazol-5-yl)thiophen-2-yl]sulfonyl}piperazin-1-yl)propan-2-yl]thieno[3,2-d]pyrimidin-4-amine] | < 1 µM
9 | Cc1csc2c(N[C@@H](C)CN3CCN(S(=O)(=O)c4ccc(-c5ccccn5)s4)CC3)ncnc12 [Example 30, 7-methyl-N-[(2S)-1-(4-{[5-(pyridin-2-yl)thiophen-2-yl]sulfonyl}piperazin-1-yl)propan-2-yl]thieno[3,2-d]pyrimidin-4-amine] | < 1 µM
10 | Cc1csc2c(N[C@@H](C)CN3CCN(S(=O)(=O)c4cnc(-c5ccccc5)nc4)CC3)ncnc12 [Example 15, 7-methyl-N-[(2S)-1-{4-[(2-phenylpyrimidin-5-yl)sulfonyl]piperazin-1-yl}propan-2-yl]thieno[3,2-d]pyrimidin-4-amine] | < 1 µM
11 | COC(=O)Nc1nc(C)c(S(=O)(=O)N2CCN(C[C@H](C)Nc3nc(C4CC4)nc4c(C)csc34)CC2)s1 [Example 31, methyl N-[5-({4-[(2S)-2-({2-cyclopropyl-7-methylthieno[3,2-d]pyrimidin-4-yl}amino)propyl]piperazin-1-yl}sulfonyl)-4-methyl-1,3-thiazol-2-yl]carbamate] | 0.01 to 0.1 µM
12 | CCc1nc(N[C@@H](C)CN2CCN(S(=O)(=O)c3sc(NC(=O)OC)nc3C)CC2)c2scc(C)c2n1 [Example 38, methyl N-[5-({4-[(2S)-2-({2-ethyl-7-methylthieno[3,2-d]pyrimidin-4-yl}amino)propyl]piperazin-1-yl}sulfonyl)-4-methyl-1,3-thiazol-2-yl]carbamate] | 0.01 to 0.1 µM

Second part, the compound after the results:

Row | IC50 | SMILES
13 | < 1 µM | CCC(=O)Nc1nc(C)c(S(=O)(=O)N2CCN(C[C@H](C)Nc3ncnc4c(C)csc34)CC2)s1 [Example 19, N-[4-methyl-5-({4-[(2S)-2-({7-methylthieno[3,2-d]pyrimidin-4-yl}amino)propyl]piperazin-1-yl}sulfonyl)-1,3-thiazol-2-yl]propanamide]
14 | < 1 µM | CCc1nc(N[C@@H](C)CN2CCN(S(=O)(=O)c3sc(NC(C)=O)nc3C)CC2)c2scc(C)c2n1 [Example 36, N-[5-({4-[(2S)-2-({2-ethyl-7-methylthieno[3,2-d]pyrimidin-4-yl}amino)propyl]piperazin-1-yl}sulfonyl)-4-methyl-1,3-thiazol-2-yl]acetamide]
15 | < 1 µM | Cc1nc(NC=O)sc1S(=O)(=O)N1CCN(C[C@H](C)Nc2ncnc3c(C)csc23)CC1 [Example 26, N-[4-methyl-5-({4-[(2S)-2-({7-methylthieno[3,2-d]pyrimidin-4-yl}amino)propyl]piperazin-1-yl}sulfonyl)-1,3-thiazol-2-yl]formamide]
16 | < 1 µM | Cc1nc(-c2ccc(S(=O)(=O)N3CCN(C[C@H](C)Nc4ncnc5c(C)csc45)CC3)s2)cs1 [Example 27, 7-methyl-N-[(2S)-1-(4-{[5-(2-methyl-1,3-thiazol-4-yl)thiophen-2-yl]sulfonyl}piperazin-1-yl)propan-2-yl]thieno[3,2-d]pyrimidin-4-amine]
17 | 0.01 to 0.1 µM | COC(=O)Nc1nc(C)c(S(=O)(=O)N2CCN(C[C@H](C)Nc3ncnc4c(C(F)(F)F)csc34)CC2)s1 [Example 1, methyl N-[4-methyl-5-({4-[(2S)-2-{[7-(trifluoromethyl)thieno[3,2-d]pyrimidin-4-yl]amino}propyl]piperazin-1-yl}sulfonyl)-1,3-thiazol-2-yl]carbamate]
18 | < 1 µM | Cc1csc2c(N[C@@H](C)CN3CCN(S(=O)(=O)c4cc(Br)c(Cl)s4)CC3)ncnc12 [Example 10, N-[(2S)-1-{4-[(4-bromo-5-chlorothiophen-2-yl)sulfonyl]piperazin-1-yl}propan-2-yl]-7-methylthieno[3,2-d]pyrimidin-4-amine]
19 | 0.01 to 0.1 µM | Cc1noc(-c2ccc(S(=O)(=O)N3CCN(C[C@H](C)Nc4ncnc5c(C)csc45)CC3)s2)c1C [Example 28, N-[(2S)-1-(4-{[5-(3,4-dimethyl-1,2-oxazol-5-yl)thiophen-2-yl]sulfonyl}piperazin-1-yl)propan-2-yl]-7-methylthieno[3,2-d]pyrimidin-4-amine]
20 | 0.01 to 0.1 µM | CC(=O)Nc1nc(C)c(S(=O)(=O)N2CCN(C[C@H](C)Nc3nc(C4CC4)nc4c(C)csc34)CC2)s1 [Example 35, N-[5-({4-[(2S)-2-({2-cyclopropyl-7-methylthieno[3,2-d]pyrimidin-4-yl}amino)propyl]piperazin-1-yl}sulfonyl)-4-methyl-1,3-thiazol-2-yl]acetamide]
21 | < 1 µM | COC(=O)Nc1nc(C)c(S(=O)(=O)N2CCN(C[C@H](C)Nc3nc(C)nc4c(C)csc34)CC2)s1 [Example 37, Methyl N-[5-({4-[(2S)-2-({2,7-dimethylthieno[3,2-d]pyrimidin-4-yl}amino)propyl]piperazin-1-yl}sulfonyl)-4-methyl-1,3-thiazol-2-yl]carbamate]

Same assay, conditions: same in vitro assay as Table 2; read-out: IC50 on LPA2 receptor

Row | IC50 | SMILES
22 | > 2 µM | COC(=O)Nc1nc(C)c(S(=O)(=O)N2CCN(C[C@H](C)Nc3ncnc4c(-c5cccnc5)cn(C)c34)CC2)s1 [comparative Example A, Methyl (S)-(4-methyl-5-((4-(2-((5-methyl-7-(pyridin-3-yl)-5H-pyrrolo[3,2-d]pyrimidin-4-yl)amino)propyl)piperazin-1-yl)sulfonyl)thiazol-2-yl)carbamate, reference compound]
